Literature values, collected in patent US11857524B2, “Stable oral suspensions of baclofen” (ANI Pharmaceuticals, Inc., priority 2021, dated 2024).
Like-named read-outs stand apart in the source and are kept apart here.

NCC(CC(=O)O)c1ccc(Cl)cc1 (stereo not drawn) [Baclofen, 4-amino-3-(4-chlorophenyl)-butanoic acid]
Solubility (in chloroform): insoluble
Solubility (in methanol): very slightly soluble
Solubility (in water): slightly soluble
